System: LS174T human colon adenocarcinoma
Test: PET imaging of human colon cancer tissue in nude mice
Assay type: in vivo
Details: female athymic nu/nu mice, s.c. LS174T xenograft, 20 μCi i.v.
Experimental: A humanized MN-14 IgG antibody is prepared as described in U.S. Pat. No. 6,676,924. ^18F-labeled bisulfite addition complex is prepared as described in Example 8 and is linked to the humanized MN-14 IgG by reductive amination with sodium cyanoborohydride using standard techniques (see, e.g., Gray, 1978, Meth. Enzymol. 50:155-160.). Alternatively, an antibody or antibody fragment is directly labeled with [^18F]Fluorobenzaldehyde in the presence of hydroxylamine, thiosemicarbazide or hydrazine. Gel-permeation column chromatography is used to separated the 4-[^18F]Fluorobenzaldehyde/hMN-14 immunoconjugate from unconjugated 4-[^18F]Fluorobenzaldehyde bisulfite addition complex. The 4-[^18F]Fluorobenzaldehyde/hMN-14 immunoconjugate is used to localize human colon cancer tissue in nude mice. At 4-5 weeks female athymic mice (nu/nu, Harlan, Indianapolis, Ind.) are injected s.c. with 0.2 ml of a 10% suspension of LS174T human colon adenocarcinoma prepared from a xenograft serially propagated in an athymic mouse (Sharkey et al., Cancer Res., 50: 828-34 (1990)). After waiting 2 weeks for tumor development, the mice are injected i.v. with 20 μCi of 4-[^18F]Fluorobenzaldehyde/hMN-14 immunoconjugate. Tumor tissue is imaged by PET imaging, using standard ^18F detection methods.

For “4-[^18F]Fluorobenzaldehyde/hMN-14 immunoconjugate”, the “tumor detection by PET imaging (F-18 distribution)” value was “detected as hot spots of F-18 distribution against a low-level background of F-18”.
